Source: patent US10670605B2, “Cysteine reactive probes and uses thereof” (The Scripps Research Institute, priority 2015, dated 2020)

Columns and labels:
Assay in all cases: Competitive isoTOP-ABPP in situ (fragment-treated cells)
Format in all cases: cell-based
[1] = molecular target: T1, cysteines in MDA-MB-231 and Ramos cells (Homo sapiens, UniProt Q96HE7)
T1 sequence (Q96HE7 24-468): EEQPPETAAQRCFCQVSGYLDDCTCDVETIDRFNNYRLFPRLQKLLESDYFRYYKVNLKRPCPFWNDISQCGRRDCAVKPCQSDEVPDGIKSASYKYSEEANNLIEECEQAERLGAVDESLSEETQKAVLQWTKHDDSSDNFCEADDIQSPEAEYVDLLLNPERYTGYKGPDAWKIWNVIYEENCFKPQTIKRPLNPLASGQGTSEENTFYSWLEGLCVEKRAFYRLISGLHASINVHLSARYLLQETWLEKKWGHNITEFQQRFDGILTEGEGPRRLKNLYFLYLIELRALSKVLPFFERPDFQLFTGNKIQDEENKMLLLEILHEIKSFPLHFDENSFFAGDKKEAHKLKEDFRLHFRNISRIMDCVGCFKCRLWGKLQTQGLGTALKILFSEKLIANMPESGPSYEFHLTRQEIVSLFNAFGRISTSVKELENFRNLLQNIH

[2] = molecular target: T2, cysteines in MDA-MB-231 and Ramos cells (Homo sapiens, UniProt Q9NYL9)
T2 sequence (Q9NYL9 1-352): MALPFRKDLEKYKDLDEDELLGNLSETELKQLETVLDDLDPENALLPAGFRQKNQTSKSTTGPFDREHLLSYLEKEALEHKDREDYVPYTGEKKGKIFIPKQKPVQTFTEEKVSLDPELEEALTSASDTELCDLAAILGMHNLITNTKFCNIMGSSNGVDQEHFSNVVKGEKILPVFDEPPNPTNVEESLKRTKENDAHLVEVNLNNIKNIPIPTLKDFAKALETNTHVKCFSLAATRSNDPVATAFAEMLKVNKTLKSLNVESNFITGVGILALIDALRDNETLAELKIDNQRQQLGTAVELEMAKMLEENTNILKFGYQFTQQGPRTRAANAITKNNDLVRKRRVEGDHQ

[3] = molecular target: cysteines in MDA-MB-231 and Ramos cells (Homo sapiens, UniProt Q14997); conditions: 200 μM, insitu
[4] = molecular target: cysteines in MDA-MB-231 and Ramos cells (Homo sapiens, UniProt P04406)
[5] = molecular target: cysteines in MDA-MB-231 and Ramos cells (Homo sapiens, UniProt O00299)
[6] = molecular target: T3, cysteines in MDA-MB-231 and Ramos cells (Homo sapiens, UniProt Q9BTA9)
T3 sequence (Q9BTA9 1-647): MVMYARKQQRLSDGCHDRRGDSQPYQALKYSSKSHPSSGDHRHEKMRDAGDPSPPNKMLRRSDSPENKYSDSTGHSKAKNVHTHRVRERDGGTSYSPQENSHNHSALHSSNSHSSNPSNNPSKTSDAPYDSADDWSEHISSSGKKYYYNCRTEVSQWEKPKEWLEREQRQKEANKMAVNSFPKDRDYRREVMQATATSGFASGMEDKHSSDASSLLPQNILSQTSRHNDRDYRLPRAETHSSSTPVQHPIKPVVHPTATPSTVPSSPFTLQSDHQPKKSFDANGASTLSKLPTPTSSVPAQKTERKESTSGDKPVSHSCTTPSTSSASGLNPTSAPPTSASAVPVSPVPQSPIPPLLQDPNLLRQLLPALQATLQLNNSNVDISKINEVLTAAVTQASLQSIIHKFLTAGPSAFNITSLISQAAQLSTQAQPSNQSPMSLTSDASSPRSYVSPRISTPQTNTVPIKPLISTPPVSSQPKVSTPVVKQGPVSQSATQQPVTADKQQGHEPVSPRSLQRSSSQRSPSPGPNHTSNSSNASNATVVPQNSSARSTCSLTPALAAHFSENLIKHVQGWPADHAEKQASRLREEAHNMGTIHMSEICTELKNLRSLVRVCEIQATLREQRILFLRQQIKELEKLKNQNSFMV

[7] = molecular target: T4, cysteines in MDA-MB-231 and Ramos cells (Homo sapiens, UniProt P46734)
T4 sequence (P46734 1-347): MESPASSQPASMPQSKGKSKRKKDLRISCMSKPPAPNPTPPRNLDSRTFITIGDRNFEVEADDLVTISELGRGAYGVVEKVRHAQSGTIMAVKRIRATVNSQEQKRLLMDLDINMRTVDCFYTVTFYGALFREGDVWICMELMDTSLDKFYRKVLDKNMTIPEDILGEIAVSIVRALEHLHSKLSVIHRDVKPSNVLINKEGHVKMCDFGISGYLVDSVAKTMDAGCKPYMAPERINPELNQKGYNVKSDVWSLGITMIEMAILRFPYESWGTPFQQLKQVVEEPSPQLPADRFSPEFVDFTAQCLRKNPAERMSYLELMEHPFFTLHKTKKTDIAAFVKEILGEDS

Sequence of cysteines in MDA-MB-231 and Ramos cells (Homo sapiens, UniProt Q14997) (Q14997 whole entry): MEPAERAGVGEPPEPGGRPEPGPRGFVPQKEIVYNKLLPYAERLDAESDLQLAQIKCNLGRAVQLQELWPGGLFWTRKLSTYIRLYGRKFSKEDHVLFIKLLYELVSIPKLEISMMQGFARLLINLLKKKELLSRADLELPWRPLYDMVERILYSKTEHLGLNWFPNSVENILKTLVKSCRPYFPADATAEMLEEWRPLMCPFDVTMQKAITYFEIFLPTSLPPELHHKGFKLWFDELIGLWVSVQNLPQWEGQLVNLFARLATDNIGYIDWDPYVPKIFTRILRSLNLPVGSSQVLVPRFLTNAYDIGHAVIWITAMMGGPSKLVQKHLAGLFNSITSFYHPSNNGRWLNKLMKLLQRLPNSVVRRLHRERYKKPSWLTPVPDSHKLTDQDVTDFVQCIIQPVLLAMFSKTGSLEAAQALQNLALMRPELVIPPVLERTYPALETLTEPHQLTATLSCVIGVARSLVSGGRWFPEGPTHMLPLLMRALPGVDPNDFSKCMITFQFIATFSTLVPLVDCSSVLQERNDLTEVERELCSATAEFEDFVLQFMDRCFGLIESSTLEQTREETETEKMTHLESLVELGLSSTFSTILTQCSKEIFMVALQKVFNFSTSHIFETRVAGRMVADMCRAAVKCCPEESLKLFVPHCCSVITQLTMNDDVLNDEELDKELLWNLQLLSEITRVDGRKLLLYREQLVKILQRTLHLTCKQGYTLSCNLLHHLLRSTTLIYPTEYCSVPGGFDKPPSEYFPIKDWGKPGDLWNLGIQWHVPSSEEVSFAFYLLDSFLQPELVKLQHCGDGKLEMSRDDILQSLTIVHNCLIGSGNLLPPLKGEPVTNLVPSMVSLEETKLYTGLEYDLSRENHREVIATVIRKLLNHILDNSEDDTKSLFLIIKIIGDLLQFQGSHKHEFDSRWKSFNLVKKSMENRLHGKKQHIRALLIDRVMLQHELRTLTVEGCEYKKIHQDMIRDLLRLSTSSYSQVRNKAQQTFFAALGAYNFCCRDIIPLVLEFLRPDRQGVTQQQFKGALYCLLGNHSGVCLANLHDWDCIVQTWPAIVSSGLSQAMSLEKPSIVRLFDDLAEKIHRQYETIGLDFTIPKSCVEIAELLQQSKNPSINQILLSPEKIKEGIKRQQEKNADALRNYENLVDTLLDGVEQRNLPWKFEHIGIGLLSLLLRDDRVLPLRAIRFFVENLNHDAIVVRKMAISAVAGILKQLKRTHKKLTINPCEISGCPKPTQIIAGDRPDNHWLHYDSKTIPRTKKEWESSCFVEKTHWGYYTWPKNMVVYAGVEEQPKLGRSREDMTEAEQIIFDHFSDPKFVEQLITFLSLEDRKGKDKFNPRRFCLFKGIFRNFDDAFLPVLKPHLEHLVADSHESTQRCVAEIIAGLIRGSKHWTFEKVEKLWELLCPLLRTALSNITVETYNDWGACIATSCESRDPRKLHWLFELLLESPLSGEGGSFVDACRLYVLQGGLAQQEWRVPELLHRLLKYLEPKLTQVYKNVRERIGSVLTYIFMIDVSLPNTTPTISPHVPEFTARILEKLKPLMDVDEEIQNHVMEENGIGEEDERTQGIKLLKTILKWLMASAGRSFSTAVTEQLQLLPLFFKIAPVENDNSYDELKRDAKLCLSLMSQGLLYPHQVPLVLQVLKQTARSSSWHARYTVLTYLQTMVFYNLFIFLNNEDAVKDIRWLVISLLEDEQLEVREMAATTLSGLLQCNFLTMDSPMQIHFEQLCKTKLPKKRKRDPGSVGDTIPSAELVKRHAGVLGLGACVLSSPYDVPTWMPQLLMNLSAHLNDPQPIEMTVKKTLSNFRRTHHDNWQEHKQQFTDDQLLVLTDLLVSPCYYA
Sequence of cysteines in MDA-MB-231 and Ramos cells (Homo sapiens, UniProt P04406) (P04406 whole entry): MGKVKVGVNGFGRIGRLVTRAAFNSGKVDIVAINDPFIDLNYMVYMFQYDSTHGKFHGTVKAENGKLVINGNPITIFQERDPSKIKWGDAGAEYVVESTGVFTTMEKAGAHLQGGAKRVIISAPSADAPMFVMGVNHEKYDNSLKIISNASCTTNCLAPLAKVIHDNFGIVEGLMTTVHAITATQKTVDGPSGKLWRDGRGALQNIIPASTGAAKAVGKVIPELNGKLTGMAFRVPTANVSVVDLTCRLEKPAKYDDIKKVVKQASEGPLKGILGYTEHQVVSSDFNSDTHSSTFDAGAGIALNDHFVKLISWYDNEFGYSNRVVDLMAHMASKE

Row | Compound | isoTOP-ABPP ratio Q96HE7_C241 ([1]; 200 μM, insitu, 231) | isoTOP-ABPP ratio Q9NYL9_C132 ([2]; 200 μM, insitu, 231) | isoTOP-ABPP ratio Q14997_C1840 [3]; 231 | isoTOP-ABPP ratio P04406_C152 ([4]; 200 μM, insitu, 231) | isoTOP-ABPP ratio O00299_C24 ([5]; 200 μM, insitu, 231) | isoTOP-ABPP ratio Q9BTA9_C553 ([6]; 200 μM, insitu, 231) | isoTOP-ABPP ratio P46734_C207 ([7]; 200 μM, insitu, 231) | isoTOP-ABPP ratio Q96HE7_C37 ([1]; 200 μM, insitu, 231) | further results
1 | O=C(CCl)NC12CC3CC(CC(C3)C1)C2 [compound 21] | 1.6 | 1.4 | 1.0 | 1.3 | 0.7 | 2.8 | 0.9 |  | 
2 | COc1ccc2c(c1)CCCN2C(=O)CCl [compound 2] |  |  |  |  |  |  |  |  | isoTOP-ABPP reactivity Q96HE7_C241 ERO1L ([1]; 200 μM, insitu, 231): 2.4; isoTOP-ABPP reactivity Q9NYL9_C132 TMOD3 ([2]; 200 μM, insitu, 231): 2.2; isoTOP-ABPP reactivity Q14997_C1840 PSME4 [3]; 231: 2.8; isoTOP-ABPP reactivity P04406_C152 GAPDH ([4]; 200 μM, insitu, 231): 20.0; isoTOP-ABPP reactivity O00299_C24 CLIC1 ([5]; 200 μM, insitu, 231): 9.5; isoTOP-ABPP reactivity Q9BTA9_0553 WAC ([6]; 200 μM, insitu, 231): 17.6; isoTOP-ABPP reactivity P46734_C207 MAP2K3 ([7]; 200 μM, insitu, 231): 0.8
3 | Cn1cc(S(=O)(=O)N2CCOCC2)cc1C(=O)NC(=O)CCl [compound 11] |  |  |  |  |  |  |  |  | isoTOP-ABPP ratio Q96HE7_C241 ([1]; 100 μM in situ 231): 1.8; isoTOP-ABPP ratio Q9NYL9_C132 ([2]; 100 μM in situ 231): 0.5; isoTOP-ABPP ratio P04406_C152 ([4]; 100 μM in situ 231): 0.8; isoTOP-ABPP ratio O00299_C24 ([5]; 100 μM in situ 231): 2.5; isoTOP-ABPP ratio Q9BTA9_C553 ([6]; 100 μM in situ 231): 1.7; isoTOP-ABPP ratio P46734_C207 ([7]; 100 μM in situ 231): 0.6
4 | COc1ccccc1OCCNC(=O)CCl [compound 28] | 1.1 | 0.7 | 0.9 | 0.8 |  |  |  |  | 
5 | O=C(CCl)NCCc1c[nH]c2ccccc12 [compound 13] | 1.5 |  | 0.9 | 0.9 |  | 1.4 | 0.8 |  | isoTOP-ABPP ratio Q96HE7_C241 ([1]; 200 μM, insitu, ramos): 1.3; isoTOP-ABPP ratio, cysteine Q96HE7_C37 ([1]; 200 μM, insitu, ramos): 1.4; isoTOP-ABPP ratio Q14997_C1840 ([3]; ramos): 1.6; isoTOP-ABPP ratio P04406_C152 ([4]; 200 μM, insitu, ramos): 0.9; isoTOP-ABPP ratio O00299_C24 ([5]; 200 μM, insitu, ramos): 1.8
6 | Cc1ccc(C=C(C#N)C(=O)NCCN2CCOCC2)cc1 [compound 41] | 0.7 | 0.3 | 0.9 | 0.6 | 0.6 | 1.0 | 0.7 | 0.4 | 
7 | C=CC(=O)Nc1cc(F)c(N2CCN(C(=O)OC(C)(C)C)CC2)c(F)c1 [compound 38] | 1.6 | 2.6 | 20.0 | 0.9 | 1.0 | 1.1 | 1.5 | 3.4 | 
8 | C=CC(=O)N(Cc1cccnc1)c1cc(C(F)(F)F)cc(C(F)(F)F)c1 [compound 31] | 0.7 | 0.7 |  | 0.8 | 0.6 |  |  | 0.6 | isoTOP-ABPP ratio Q9NYL9_C132 ([2]; 200 μM, insitu, ramos): 0.7; isoTOP-ABPP ratio Q14997_C1840 ([3]; ramos): 1.2; isoTOP-ABPP ratio P04406_C152 ([4]; 200 μM, insitu, ramos): 1.0
